This is an account of results in patent publication US9896418B2, “Aryl ethers and uses thereof” (Peloton Therapeutics, Inc., priority 2013, dated 2018).

pEC50, pIC50: −log10 of the molar value.

Assay [1] has as its system 786-O-Hif-Luc cells. The assay can be described thus: Luciferase Assay. Format: cell-based. The settings on record: about 24 hours, read-out: Mean Luciferease EC50. On the procedure:
A pool of infected cells were then selected against 2 μg/mL of puromycin (P8833, Sigma) for 10 days followed by limited dilution to select single clones.
Each concentration was tested in triplicate. After about 24 hours, luciferase activity was determined using ONE-Glo Luciferase Assay Reagent (E6110, Promega) following the manufacturer's recommended procedure. EC50 were calculated by using Dotmatics software.

Assay [2] relates to HIF-2α HIS TAG-PASB Domain. The assay can be described thus: HIF-2α Scintillation Proximity Assay (SPA). Format: binding. Here is the method:
The percent inhibition was determined and IC50 values were calculated using the Dotmatics system based on the following equation: % inhibition=[(high control−sample)/(high control−low control)]×100.

Assay [3] has as its system 786-O cells. Description: VEGF ELISA Assay. It counts as cell-based. On the procedure:
Each concentration had duplicated wells. About 20 hours later, medium was removed by suction and each well was supplied with 180 μL of growth medium. About 20 μl freshly-made 10× compound stocks were added to each well. […] The EC50 was calculated by GraphPad Prism using the dose-response-inhibition (four parameter) equation. The cell seeded plate was then subjected to CellTiter-Glo luminescence cell viability assay (Promega) by adding 50 μL of Celltiter Glo reagent into each well and shaking the plate for 8 minutes at 550 rpm (Thermomixer R, Eppendorf) then read luminescence signal in plate reader (3 second delay, 0.5 second/well integration time, Synergy 2 multi Detection Microplate reader) immediately.
(In general: In an ELISA, binding on a coated surface is turned into a signal by an enzyme label.)

For `C[C@H]1C[C@@H](O)c2c(S(=O)(=O)C(F)F)ccc(Oc3cc(F)cc(Cl)c3)c21` (racemic) [Compound 7a], the negative-log EC50 (pEC50) (commonly −log10 of the EC50, conventionally taken in molar units) in assay [1] is 6.00.

Take `C=CCN=S(=O)(c1ccc(Oc2cc(F)cc(C#N)c2)c2c1[C@H](O)C(F)(F)C2)C(F)(F)F` (single isomer, unassigned) [Compound 307]: the negative logarithm of the EC50 (pEC50) in assay [1] is 5.77. Besides, the pIC50 (as a rule, the IC50 on a negative log10 scale, so that one unit is a factor of ten) in assay [2] is 6.43.

Take `C=CCN=S(=O)(c1ccc(Oc2cc(F)cc(C#N)c2)c2c1[C@H](O)C(F)(F)C2)C(F)(F)F` (single isomer, unassigned) [Compound 308]: the pEC50 in assay [1] was 6.16. The compound further gave a pIC50 in assay [2] of 7.17.

As to `CS(=O)(=NC#N)c1ccc(Oc2cc(F)cc(C#N)c2)c2c1[C@H](O)C(F)(F)C2` (single isomer, unassigned) [Example 245], the figures for the pEC50 in assay [3] (786-O cells) and in assay [1] were 6.80 and 7.21, respectively. In assay [2], this compound showed a pIC50 of 7.49.

On to `N#Cc1cc(F)cc(Oc2ccc(S(=N)(=O)CF)c3c2CC(F)(F)[C@H]3O)c1` (single isomer, unassigned) [Example 275], for which, in assay [1], the pEC50 is 6.59. The compound further had a pIC50 in assay [2] of 7.12.

On to `N#CN=S(=O)(CF)c1ccc(Oc2cc(F)cc(C#N)c2)c2c1[C@H](O)[C@H](F)C2` (single isomer, unassigned) [Example 276], for which the pEC50 in assay [1] was 6.82. In addition, the pIC50 in assay [2] is 7.24.

Turning to `N#CN=S(=O)(CF)c1ccc(Oc2cc(F)cc(C#N)c2)c2c1[C@H](O)[C@H](F)C2` (single isomer, unassigned) [Example 277], the negative-log EC50 (pEC50) in assay [1] was 7.13. In assay [2], this compound gave a pIC50 of 6.87.

As to `N#CN=S(=O)(CF)c1ccc(Oc2cc(F)cc(C#N)c2)c2c1[C@H](O)C(F)(F)C2` (single isomer, unassigned) [Example 286], the negative logarithm of the EC50 (pEC50) in assay [1] is 6.85. The pIC50 in assay [2] was 7.62.

As to `N#Cc1cc(F)cc(Oc2ccc(S(=N)(=O)C(F)(F)F)c3c2CC(F)(F)[C@H]3O)c1` (single isomer, unassigned) [Example 305], the pEC50 was 7.71 in assay [3] (Homo sapiens, 786-0, 786-O cells) and 7.89 in assay [1]. In assay [2], the negative-log IC50 (pIC50) is more than 8.30.

`N#Cc1cc(F)cc(Oc2ccc(S(=N)(=O)C(F)(F)F)c3c2CC(F)(F)[C@H]3O)c1` (single isomer, unassigned) [Example 306]: the negative logarithm of the EC50 (pEC50) is 7.72 in assay [3] (786-O cells) and 7.52 in assay [1]. Besides, the pIC50 in assay [2] is more than 8.30.

For the compound `CS(=O)(=NC#N)c1ccc(Oc2cc(F)cc(C#N)c2)c2c1[C@H](O)C(F)(F)[C@@H]2F` (single isomer, unassigned) [Example 317], the pEC50 in assay [3] (786-O cells) was 7.85; in assay [1], 7.92. For the same compound, the pIC50 in assay [2] was more than 8.30.

As to `O=S(=O)(c1ccc(Oc2cc(F)cc(Cl)c2)c(Br)c1CO)C(F)F` [Compound 74, (2-bromo-3-(3-chloro-5-fluorophenoxy)-6-((difluoromethyl)sulfonyl)phenyl)methanol], the pEC50 in assay [1] is 6.31.

For `O=S(=O)(c1ccc(Oc2cc(F)cc(Cl)c2)c(Br)c1)C(F)(F)F` [Compound 116, 2-Bromo-1-(3-chloro-5-fluorophenoxy)-4-((trifluoromethyl)sulfonyl)benzene], the pEC50 in assay [1] is 5.46. In assay [2], this compound gave a pIC50 of 6.82.

For the compound `O=S(=O)(c1ccc(Oc2cc(F)cc(Cl)c2)c(Cl)c1)C(F)(F)F` [Compound 128, 2-Chloro-1-(3-chloro-5-fluorophenoxy)-4-((trifluoromethyl)sulfonyl)benzene], the pEC50 in assay [1] was 5.52. In assay [2], this compound had a pIC50 of 6.82.

Take `N#Cc1cc(F)cc(Oc2ccc(S(=N)(=O)C(F)(F)F)c3c2CCC3O)c1` (stereo not drawn) [Compound 259, 3-Fluoro-5-((1-hydroxy-7-(S-(trifluoromethyl)sulfonimidoyl)-2,3-dihydro-1H-inden-4-yl)oxy)benzonitrile]: the pEC50 in assay [1] is 5.70. Besides, in assay [2], the pIC50 is 5.92.

Regarding `N#Cc1cc(F)cc(Oc2ccc(S(=O)(=O)C(F)(F)F)c3c2CC(F)C3N)c1` (stereo not shown) [Compound 265, 3-((1-amino-2-fluoro-7-((trifluoromethyl)sulfonyl)-2,3-dihydro-1H-inden-4-yl)oxy)-5-fluorobenzonitrile], in assay [1], the pEC50 is 6.05. Besides, the pIC50 in assay [2] was 7.05.

On to `N#Cc1cncc(Oc2ccc(S(=N)(=O)C(F)(F)F)c3c2CC(F)(F)[C@H]3O)c1` (stereo partly drawn) [Example 314, 5-(((1S)-2,2-difluoro-1-hydroxy-7-(S-(trifluoromethyl)sulfonimidoyl)-2,3-dihydro-1H-inden-4-yl)oxy)nicotinonitrile], for which the negative logarithm of the IC50 (pIC50) in assay [2] is 7.60.

As to `N#Cc1cncc(Oc2ccc(S(=N)(=O)C(F)(F)F)c3c2CC(F)(F)[C@H]3O)c1` (stereo partly drawn) [Example 315, 5-(((1S)-2,2-difluoro-1-hydroxy-7-(S-(trifluoromethyl)sulfonimidoyl)-2,3-dihydro-1H-inden-4-yl)oxy)nicotinonitrile], in assay [1], the pEC50 was 6.96. The same compound gave a pIC50 in assay [2] of 7.63.

In turn, “(1R,3S)-4-(3-chloro-5-fluorophenoxy)-3-(hydroxymethyl)-7-((trifluoromethyl)sulfonyl)-2,3-dihydro-1H-inden-1-ol [Compound 281]” showed a pIC50 in assay [2] of 6.14.

On to “[[(1R,3R)-7-(3-cyano-5-fluoro-phenoxy)-1,2,2-trifluoro-3-hydroxy-indan-4-yl]-methyl-oxo-λ^6-sulfanylidene]cyanamide [Compound 320]”, for which the pIC50 in assay [2] was 5.80.

As for “[[(1R,3R)-7-(3-cyano-5-fluoro-phenoxy)-1,2,2-trifluoro-3-hydroxy-indan-4-yl]-methyl-oxo-λ^6-sulfanylidene]cyanamide [Compound 322]”, in assay [2], the pIC50 is 5.01.
